target: T1, Dystroglycan 1 (Mus musculus) (UniProt Q62165); test: Increase of functional O-mannosylation of alpha-dystroglycan in mouse C2C12 cells expressing LARGE at 10 uM after 48 hrs by alpha-screen assay relative to control; format: cell-based
T1 sequence (whole entry): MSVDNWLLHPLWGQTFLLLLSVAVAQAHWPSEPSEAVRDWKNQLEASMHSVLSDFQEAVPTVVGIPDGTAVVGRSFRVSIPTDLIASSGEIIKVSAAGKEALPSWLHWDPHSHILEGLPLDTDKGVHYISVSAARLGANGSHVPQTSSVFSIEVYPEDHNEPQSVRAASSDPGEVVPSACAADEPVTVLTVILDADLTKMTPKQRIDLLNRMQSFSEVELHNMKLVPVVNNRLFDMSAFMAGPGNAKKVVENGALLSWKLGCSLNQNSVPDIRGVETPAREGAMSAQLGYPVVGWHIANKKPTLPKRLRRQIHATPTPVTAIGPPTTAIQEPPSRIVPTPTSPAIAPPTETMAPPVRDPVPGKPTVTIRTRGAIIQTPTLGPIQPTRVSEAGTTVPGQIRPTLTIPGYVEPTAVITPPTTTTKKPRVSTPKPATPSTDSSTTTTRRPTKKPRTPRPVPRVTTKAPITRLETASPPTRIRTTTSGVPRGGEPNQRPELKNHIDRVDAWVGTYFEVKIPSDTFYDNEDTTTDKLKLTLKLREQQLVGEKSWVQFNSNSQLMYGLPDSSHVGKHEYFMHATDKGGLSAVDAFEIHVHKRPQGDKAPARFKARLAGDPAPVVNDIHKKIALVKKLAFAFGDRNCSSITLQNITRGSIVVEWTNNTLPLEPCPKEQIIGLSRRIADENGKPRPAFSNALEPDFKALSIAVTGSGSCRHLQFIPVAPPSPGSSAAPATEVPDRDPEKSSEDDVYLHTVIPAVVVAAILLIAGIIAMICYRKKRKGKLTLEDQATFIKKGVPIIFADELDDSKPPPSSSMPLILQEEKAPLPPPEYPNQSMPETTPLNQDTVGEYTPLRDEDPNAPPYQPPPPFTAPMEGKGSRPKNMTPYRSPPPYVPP

Q: How did the Activity turn out when `CCC(c1nnnn1Cc1cccs1)N1CCN(c2nc3ccccc3s2)CC1` (configuration not stated) was run?
A: 56%

Q: How did the Activity turn out when `c1csc(Cn2nnnc2CN2CCN(c3nc4ccccc4s3)CC2)c1` was run?
A: 37%

target: T2, Dystroglycan (Cricetulus griseus) (UniProt G3H8F4); test: Increase of functional O-mannosylation of alpha-dystroglycan in Chinese hamster pro5 cells expressing LARGE after 48 hrs by alpha-screen assay; format: cell-based
T2 sequence (whole entry): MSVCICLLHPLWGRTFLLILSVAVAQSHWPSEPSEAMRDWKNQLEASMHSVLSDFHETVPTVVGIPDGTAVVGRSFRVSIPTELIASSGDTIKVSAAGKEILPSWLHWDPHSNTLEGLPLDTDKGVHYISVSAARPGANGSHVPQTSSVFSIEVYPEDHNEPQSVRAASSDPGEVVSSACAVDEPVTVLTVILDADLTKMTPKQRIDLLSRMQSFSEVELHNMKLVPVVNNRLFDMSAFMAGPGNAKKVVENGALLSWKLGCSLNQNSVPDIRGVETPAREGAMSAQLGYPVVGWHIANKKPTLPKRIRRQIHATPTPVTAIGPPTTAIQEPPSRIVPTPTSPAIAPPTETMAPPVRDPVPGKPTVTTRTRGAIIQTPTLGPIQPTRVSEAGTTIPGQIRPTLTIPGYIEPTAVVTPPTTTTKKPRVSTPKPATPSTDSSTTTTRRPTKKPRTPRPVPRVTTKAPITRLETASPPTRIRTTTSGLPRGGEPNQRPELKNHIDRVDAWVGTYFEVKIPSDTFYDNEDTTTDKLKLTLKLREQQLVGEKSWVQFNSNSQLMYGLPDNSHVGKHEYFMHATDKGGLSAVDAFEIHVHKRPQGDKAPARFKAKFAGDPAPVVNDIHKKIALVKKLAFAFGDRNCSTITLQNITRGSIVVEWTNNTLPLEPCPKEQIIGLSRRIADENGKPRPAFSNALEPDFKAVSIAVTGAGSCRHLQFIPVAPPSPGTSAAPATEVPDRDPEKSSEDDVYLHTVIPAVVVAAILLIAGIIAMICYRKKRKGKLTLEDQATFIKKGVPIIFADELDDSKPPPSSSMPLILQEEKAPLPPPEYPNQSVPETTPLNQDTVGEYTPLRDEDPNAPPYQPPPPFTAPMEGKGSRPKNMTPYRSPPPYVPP

Q: `CCC(c1nnnn1Cc1cccs1)N1CCN(c2nc3ccc(F)cc3s2)CC1` (configuration not stated) was tested. Which EC1.5 did it give?
A: 21 µM

Q: For `O=C(c1nnnn1Cc1cccs1)N1CCN(c2nc3ccccc3s2)CC1`, which EC1.5 is on record?
A: > 64 µM

Q: How did the EC1.5 turn out when `CC(C)n1nnnc1CN1CCN(c2nc3ccccc3s2)CC1` was run?
A: > 64 µM

Q: How did the EC1.5 turn out when `CCC(c1nnnn1Cc1cccs1)N1CCN(c2nc3ccc(Cl)cc3s2)CC1` (configuration not stated) was run?
A: 13 µM

Q: `CCC(NCCNc1nc2cccc(F)c2s1)c1nnnn1Cc1cccs1` (configuration not stated) was tested. Which EC1.5 did it give?
A: > 64 µM

Q: With `CCC(c1nnnn1Cc1cccs1)N1CCN(c2nc3ccc(C(=O)OC)cc3s2)CC1` (configuration not stated) as the compound, how does the EC1.5 read?
A: 28 µM

Q: How did the EC1.5 turn out when `CCC(c1nnnn1-c1ccccc1)N1CCN(c2nc3ccccc3s2)CC1` (configuration not stated) was run?
A: > 64 µM

Q: `CCC(c1nnnn1Cc1cccs1)N1CCN(c2nc3ccc(C)cc3s2)CC1` (configuration not stated) was tested. Which EC1.5 did it give?
A: 15 µM

Q: How did the EC1.5 turn out when `CCC(c1nnnn1Cc1nccs1)N1CCN(c2nc3cccc(F)c3s2)CC1` (configuration not stated) was run?
A: 43 µM

Q: How did the EC1.5 turn out when `CCC(c1ccc(-c2nc3ccccc3s2)cc1)c1nnnn1Cc1cccs1` (configuration not stated) was run?
A: 49 µM

Q: Which EC1.5 does the source give for `CCC(c1nnnn1Cc1cccs1)N1CCN(c2nc3cccc(Br)c3s2)CC1` (configuration not stated) here?
A: 22 µM

Q: With `CC(C)CC(c1nnnn1Cc1cccs1)N1CCN(c2nc3ccccc3s2)CC1` (configuration not stated) as the compound, how does the EC1.5 read?
A: > 64 µM

Q: With `CCC(c1nnnn1Cc1cccs1)N1CCN(c2nc3ccc(C(=O)O)cc3s2)CC1` (configuration not stated) as the compound, how does the EC1.5 read?
A: 19 µM

Q: For `CCC(c1nnnn1Cc1cccs1)N1CCN(c2nc3ccc(OC)cc3s2)CC1` (configuration not stated), which EC1.5 is on record?
A: 7.1 µM

Q: How did the EC1.5 turn out when `CCC(c1nnnn1Cc1cccs1)N1CCN(C2=Nc3ccccc3C2)CC1` (configuration not stated) was run?
A: 28 µM

Q: For `CCC(c1nnnn1Cc1cccs1)N1CCN(c2nc3cc(OC)c(OC)c(OC)c3s2)CC1` (configuration not stated), which EC1.5 is on record?
A: 6.5 µM

Q: With `CCC(c1nnnn1Cc1cccs1)N1CCN(c2nc3cc(N)ccc3s2)CC1` (configuration not stated) as the compound, how does the EC1.5 read?
A: 3.4 µM

Q: With `CCC(c1nnnn1Cc1cccs1)N1CCN(c2nc3cccc(C(=O)O)c3s2)CC1` (configuration not stated) as the compound, how does the EC1.5 read?
A: 22 µM

Q: Which EC1.5 does the source give for `c1ccc2sc(N3CCN(Cc4nnnn4C4CCCC4)CC3)nc2c1` here?
A: > 64 µM

Q: How did the EC1.5 turn out when `CCC(c1nnnn1Cc1cccs1)N1CCN(c2nc3cc([N+](=O)[O-])ccc3s2)CC1` (configuration not stated) was run?
A: > 64 µM

Q: `c1ccc(C(c2nnnn2Cc2cccs2)N2CCN(c3nc4ccccc4s3)CC2)cc1` (configuration not stated) was tested. Which EC1.5 did it give?
A: > 64 µM

Q: How did the EC1.5 turn out when `CCC(c1nnnn1Cc1cccs1)N1CCN(c2nc3ccccc3[nH]2)CC1` (configuration not stated) was run?
A: 17 µM

Q: How did the EC1.5 turn out when `CCC(c1nnnn1Cc1cccs1)N1CCN(c2nc3ccc(N)cc3s2)CC1` (configuration not stated) was run?
A: 11 µM

Q: How did the EC1.5 turn out when `CCC(c1nnnn1CCc1cccs1)N1CCN(c2nc3cccc(F)c3s2)CC1` (configuration not stated) was run?
A: 64 µM

Q: Which EC1.5 does the source give for `CCC(c1nnnn1Cc1cccs1)N1CCN(c2nc3cc(F)ccc3s2)CC1` (configuration not stated) here?
A: > 64 µM

Q: How did the EC1.5 turn out when `CCC(c1nnnn1Cc1cccs1)N1CCN(c2nc3ccccc3s2)CC1` (configuration not stated) was run?
A: 4.6 µM

Q: Which EC1.5 does the source give for `CCC(c1nnnn1Cc1cccs1)N1CCN(c2nc3c(F)cccc3s2)CC1` (configuration not stated) here?
A: 4.9 µM

Q: How did the EC1.5 turn out when `CCC(c1nnnn1Cc1cccs1)N1CCN(c2nc3ccc(NC(=O)c4ccccc4C)cc3s2)CC1` (configuration not stated) was run?
A: > 64 µM

Q: For `CCC(c1nnnn1Cc1cccs1)N1CCN(c2nc3c(F)cc(F)cc3s2)CC1` (configuration not stated), which EC1.5 is on record?
A: 17 µM

Q: `CCC(c1cnnn1Cc1cccs1)N1CCN(c2nc3ccccc3s2)CC1` (configuration not stated) was tested. Which EC1.5 did it give?
A: 48 µM

Q: How did the EC1.5 turn out when `CCC(c1nnnn1Cc1cccs1)N1CCN(c2nc3c(N)cccc3s2)CC1` (configuration not stated) was run?
A: 16 µM

Q: How did the EC1.5 turn out when `CCC(c1nnnn1Cc1cccs1)N1CCN(c2nc3cccc(C(=O)OC)c3s2)CC1` (configuration not stated) was run?
A: 14 µM

Q: `Fc1ccc(Cn2nnnc2CN2CCN(c3nc4ccccc4s3)CC2)cc1` was tested. Which EC1.5 did it give?
A: > 64 µM

Q: Which EC1.5 does the source give for `c1csc(Cn2nnnc2CN2CCN(c3nc4ccccc4s3)CC2)c1` here?
A: 8.7 µM

Q: For `CCC(c1nnnn1Cc1ccco1)N1CCN(c2nc3ccccc3s2)CC1` (configuration not stated), which EC1.5 is on record?
A: 9.5 µM

Q: With `CCC(c1nnnn1Cc1cccs1)N1CCN(c2nc3cc([N+](=O)[O-])cc(F)c3s2)CC1` (configuration not stated) as the compound, how does the EC1.5 read?
A: 25 µM

Q: How did the EC1.5 turn out when `CCC(c1nnnn1Cc1cccs1)N1CCN(c2nc3ccc(NC(=O)CCCC[C@@H]4SC[C@@H]5NC(=O)N[C@@H]54)cc3s2)CC1` (some centres not stated) was run?
A: 4.3 µM

Q: With `CC(c1nnnn1Cc1cccs1)N1CCN(c2nc3ccccc3s2)CC1` (configuration not stated) as the compound, how does the EC1.5 read?
A: 7.2 µM

Q: How did the EC1.5 turn out when `COc1ccc(Cn2nnnc2CN2CCN(c3nc4ccccc4s3)CC2)cc1` was run?
A: > 64 µM

Q: For `CCC(c1nnnn1Cc1cccs1)N1CCC(c2nc3ccccc3s2)CC1` (configuration not stated), which EC1.5 is on record?
A: 9.6 µM

Q: For `CCC(c1nnnn1Cc1cccs1)N1CCN(c2nc3ccc(NC(=O)c4ccccc4Cl)cc3s2)CC1` (configuration not stated), which EC1.5 is on record?
A: > 64 µM

Q: How did the EC1.5 turn out when `CCC(c1nnnn1Cc1cccs1)N1CCN(c2nc3ccccc3o2)CC1` (configuration not stated) was run?
A: 9.5 µM

Q: For `CCC(c1nnnn1Cc1cccs1)N1CCN(c2nc3cccc(C(F)(F)F)c3s2)CC1` (configuration not stated), which EC1.5 is on record?
A: 25 µM

Q: How did the EC1.5 turn out when `CCC(c1nnnn1Cc1cccs1)N1CCN(c2nc3ccc([N+](=O)[O-])cc3s2)CC1` (configuration not stated) was run?
A: 32 µM

Q: Which EC1.5 does the source give for `CCC(c1nnnn1Cc1ccccc1)N1CCN(c2nc3ccccc3s2)CC1` (configuration not stated) here?
A: > 64 µM

Q: How did the EC1.5 turn out when `CCC(c1nnnn1Cc1cccs1)N1CCN(c2nc3cccc(O)c3s2)CC1` (configuration not stated) was run?
A: 21 µM

Q: With `CCC(c1nnnn1Cc1cccs1)N1CCN(Cc2nc3ccccc3s2)CC1` (configuration not stated) as the compound, how does the EC1.5 read?
A: 64 µM

Q: `CCC(c1nnnn1Cc1cccs1)N1CCN(c2nc3cccc(F)c3s2)CC1` (configuration not stated) was tested. Which EC1.5 did it give?
A: 2.6 µM

Q: With `CCCC(c1nnnn1Cc1cccs1)N1CCN(c2nc3ccccc3s2)CC1` (configuration not stated) as the compound, how does the EC1.5 read?
A: 34 µM

Q: How did the EC1.5 turn out when `CCC(c1nnnn1Cc1cccs1)N1CCN(c2nc3ccc(-c4ccccc4)cc3s2)CC1` (configuration not stated) was run?
A: > 64 µM

Source: ChEMBL document CHEMBL3739371, “Small molecules enhance functional O-mannosylation of Alpha-dystroglycan” (Bioorg Med Chem, 2015)
